Laboratory results taken from PubChem BioAssay AID330 (DTP/NCI, 2004).
Several values for one entry are separate records, joined by “and”; a condition that tells them apart may be missing. Equal entries are not always repeated. Inconclusive results and toxic doses are left out. The calls were made as follows: active = survival T/C of 150% or more; inactive = T/C below 125% in these data.

Tested on: P388 leukemia ip, CD2F1 mice, survival T/C
Experiment: NCI In Vivo Anticancer Drug Screen. Data for tumor model P388 Leukemia (intraperitoneal) in CD2F1 (CDF1) mice
Details: endpoint: median survival time, higher = longer survival
Outline: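 Mice carrying the transplanted tumor received test compound or vehicle. Survival was recorded in each group, and the value is the treated-group measurement divided by that of the vehicle-treated control group.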

[1] = dose: 50.0 mg/kg/injection, schedule: Q01DX009 (ip), vehicle: saline
[2] = dose: 100.0 mg/kg/injection, schedule: Q01DX009 (ip), vehicle: saline
[3] = dose: 200.0 mg/kg/injection, schedule: Q01DX009 (ip), vehicle: saline
[4] = dose: 50.0 mg/kg/injection, schedule: Q04DX003 (ip), vehicle: saline with Tween-80

Measured: T/C

COc1cccc2sc(-n3c(C)nc4ccccc4c3=O)nc12
inactive: dose: 60.0 mg/kg/injection, schedule: Q01DX005 (ip), vehicle: Klucel (hydroxypropylcellulose) (HPC) 95 % of control | dose: 120.0 mg/kg/injection, schedule: Q01DX005 (ip), vehicle: Klucel (hydroxypropylcellulose) (HPC) 87 % of control | dose: 240.0 mg/kg/injection, schedule: Q01DX005 (ip), vehicle: Klucel (hydroxypropylcellulose) (HPC) 87 % of control

OCC[N+]12CN3CN(CN(C3)C1)C2
inactive: dose: 25.0 mg/kg/injection, schedule: Q01DX009 (ip), vehicle: saline 108 % of control | [1] 110 % of control | [2] 111 % of control | dose: 178.0 mg/kg/injection, schedule: Q01DX009 (ip), vehicle: saline 118 % of control | [3] 118 % of control | dose: 266.0 mg/kg/injection, schedule: Q01DX009 (ip), vehicle: saline 118 % of control

C[CH2][Sn]([F])([CH2]C)[CH2]C
inactive: dose: 0.37 mg/kg/injection, schedule: Q01DX009 (ip), vehicle: saline with Tween-80 90 % of control | dose: 0.38 mg/kg/injection, schedule: Q01DX009 (ip), vehicle: Klucel (hydroxypropylcellulose) (HPC) 101 % of control and 96 % of control | dose: 0.75 mg/kg/injection, schedule: Q01DX009 (ip), vehicle: Klucel (hydroxypropylcellulose) (HPC) 104 % of control and 108 % of control and 96 % of control | dose: 0.75 mg/kg/injection, schedule: Q01DX009 (ip), vehicle: saline with Tween-80 105 % of control | dose: 1.5 mg/kg/injection, schedule: Q01DX009 (ip), vehicle: Klucel (hydroxypropylcellulose) (HPC) 102 % of control and 103 % of control and 114 % of control | dose: 1.5 mg/kg/injection, schedule: Q01DX009 (ip), vehicle: saline with Tween-80 100 % of control | dose: 3.0 mg/kg/injection, schedule: Q01DX009 (ip), vehicle: Klucel (hydroxypropylcellulose) (HPC) 109 % of control and 116 % of control

C=Cc1nc(N)nc(-c2ccc(C)cc2)n1
inactive: dose: 50.0 mg/kg/injection, schedule: Q01DX005 (ip), vehicle: Klucel (hydroxypropylcellulose) (HPC) 110 % of control | dose: 100.0 mg/kg/injection, schedule: Q01DX005 (ip), vehicle: Klucel (hydroxypropylcellulose) (HPC) 111 % of control | dose: 200.0 mg/kg/injection, schedule: Q01DX005 (ip), vehicle: Klucel (hydroxypropylcellulose) (HPC) 118 % of control

CCCCCCCCC(CCc1ccccc1)CCc1ccccc1
inactive: dose: 50.0 mg/kg/injection, schedule: Q01DX001 (ip), vehicle: saline with Tween-80 88 % of control | dose: 200.0 mg/kg/injection, schedule: Q01DX001 (ip), vehicle: saline with Tween-80 100 % of control

Brc1cc2c(cc1C=NC1CCCCC1)OCO2
inactive: dose: 100.0 mg/kg/injection, schedule: Q01DX001 (ip), vehicle: Klucel (hydroxypropylcellulose) (HPC) 99 % of control | dose: 200.0 mg/kg/injection, schedule: Q01DX001 (ip), vehicle: Klucel (hydroxypropylcellulose) (HPC) 101 % of control | dose: 400.0 mg/kg/injection, schedule: Q01DX001 (ip), vehicle: Klucel (hydroxypropylcellulose) (HPC) 101 % of control

NC(=O)c1cncc(CCC(O)C(=O)O)c1 (configuration not stated)
inactive: dose: 25.0 mg/kg/injection, schedule: Q04DX003 (ip), vehicle: Klucel (hydroxypropylcellulose) (HPC) 96 % of control | dose: 50.0 mg/kg/injection, schedule: Q04DX003 (ip), vehicle: Klucel (hydroxypropylcellulose) (HPC) 91 % of control | dose: 100.0 mg/kg/injection, schedule: Q04DX003 (ip), vehicle: Klucel (hydroxypropylcellulose) (HPC) 100 % of control

CCCOP(=S)(N1CC1C)N1CC1(C)C (configuration not stated)
active: [4] 154 % of control | dose: 66.0 mg/kg/injection, schedule: Q04DX003 (ip), vehicle: saline with Tween-80 186 % of control | dose: 100.0 mg/kg/injection, schedule: Q04DX003 (ip), vehicle: saline with Tween-80 227 % of control
inactive: dose: 12.5 mg/kg/injection, schedule: Q04DX003 (ip), vehicle: saline with Tween-80 122 % of control | dose: 100.0 mg/kg/injection, schedule: Q01DX009 (ip), vehicle: saline with Tween-80 113 % of control | dose: 150.0 mg/kg/injection, schedule: Q04DX003 (ip), vehicle: saline with Tween-80 118 % of control

C/C1=C/C(O)C/C(C)=C\C(O)C(=O)/C=C/C2C(CC1)C2(C)C (configuration not stated)
inactive: dose: 2.5 mg/kg/injection, schedule: Q01DX005 (ip), vehicle: distilled water + Tween-80 + alcohol 104 % of control | dose: 5.0 mg/kg/injection, schedule: Q01DX005 (ip), vehicle: distilled water + Tween-80 + alcohol 105 % of control | dose: 10.0 mg/kg/injection, schedule: Q01DX005 (ip), vehicle: distilled water + Tween-80 + alcohol 100 % of control | dose: 20.0 mg/kg/injection, schedule: Q01DX005 (ip), vehicle: distilled water + Tween-80 + alcohol 108 % of control

c1ccc(CNc2nnc3nc(-c4ccccc4)c(-c4ccccc4)nn23)cc1
inactive: dose: 50.0 mg/kg/injection, schedule: Q01DX005 (ip), vehicle: saline with Tween-80 117 % of control | dose: 100.0 mg/kg/injection, schedule: Q01DX005 (ip), vehicle: saline with Tween-80 114 % of control | dose: 200.0 mg/kg/injection, schedule: Q01DX005 (ip), vehicle: saline with Tween-80 105 % of control

CC/C(=C(/CC)c1ccc(OC(=O)N(CCCl)CCCl)cc1)c1ccc(OC(=O)N(CCCl)CCCl)cc1
inactive: [1] 97 % of control | [2] 99 % of control | [3] 99 % of control

c1ccc(C2SCCN2c2ccccc2)cc1 (configuration not stated)
inactive: [1] 91 % of control | [2] 90 % of control | [3] 89 % of control

C[n+]1c(-c2ccc(/C=N/NC(=O)C(=O)N/N=C/c3ccc(-c4cn5ccccc5[n+]4C)cc3)cc2)cn2ccccc21
inactive: dose: 7.5 mg/kg/injection, schedule: Q01DX005 (ip), vehicle: saline 109 % of control | dose: 15.0 mg/kg/injection, schedule: Q01DX005 (ip), vehicle: saline 119 % of control

CC1CCCC(NC(=O)N(CCCl)N=O)C1 (configuration not stated)
inactive: dose: 4.0 mg/kg/injection, schedule: Q04DX003 (ip), vehicle: saline with Tween-80 118 % of control | [4] 118 % of control
active: dose: 6.25 mg/kg/injection, schedule: Q01DX009 (ip), vehicle: saline with Tween-80 175 % of control | dose: 12.5 mg/kg/injection, schedule: Q01DX009 (ip), vehicle: saline with Tween-80 225 % of control | dose: 16.0 mg/kg/injection, schedule: Q04DX003 (ip), vehicle: saline with Tween-80 177 % of control | dose: 25.0 mg/kg/injection, schedule: Q01DX009 (ip), vehicle: saline with Tween-80 272 % of control and 295 % of control | dose: 25.0 mg/kg/injection, schedule: Q04DX003 (ip), vehicle: saline with Tween-80 245 % of control

CC(=O)OC1C2(CC3N4C(=O)C5(CO)SSC4(CC31O)C(=O)N5C)OC(C)C(C)(C)C2=O (configuration not stated)
inactive: dose: 0.08 mg/kg/injection, schedule: Q01DX009 (ip), vehicle: saline 101 % of control | dose: 0.15 mg/kg/injection, schedule: Q01DX009 (ip), vehicle: saline 108 % of control | dose: 0.3 mg/kg/injection, schedule: Q01DX009 (ip), vehicle: saline 111 % of control | dose: 0.31 mg/kg/injection, schedule: Q01DX009 (ip), vehicle: saline 107 % of control | dose: 0.6 mg/kg/injection, schedule: Q01DX009 (ip), vehicle: saline 111 % of control | dose: 0.63 mg/kg/injection, schedule: Q01DX009 (ip), vehicle: saline with Tween-80 97 % of control | dose: 0.63 mg/kg/injection, schedule: Q01DX009 (ip), vehicle: saline 107 % of control | dose: 0.78 mg/kg/injection, schedule: Q01DX009 (oral), vehicle: saline 104 % of control | dose: 1.2 mg/kg/injection, schedule: Q01DX009 (ip), vehicle: saline 99 % of control | dose: 1.25 mg/kg/injection, schedule: Q01DX009 (ip), vehicle: saline 103 % of control and 111 % of control | dose: 1.56 mg/kg/injection, schedule: Q01DX009 (oral), vehicle: saline 105 % of control | dose: 3.12 mg/kg/injection, schedule: Q01DX009 (oral), vehicle: saline 100 % of control and 101 % of control | dose: 6.25 mg/kg/injection, schedule: Q01DX009 (oral), vehicle: saline 95 % of control | dose: 12.5 mg/kg/injection, schedule: Q01DX009 (oral), vehicle: saline 89 % of control

O=c1c(-c2ccccc2)cc2c(-c3ccccc3)oc(-c3ccccc3)c2cc1-c1ccccc1
inactive: dose: 50.0 mg/kg/injection, schedule: Q04DX002 (ip), vehicle: saline with Tween-80 90 % of control | dose: 100.0 mg/kg/injection, schedule: Q04DX002 (ip), vehicle: saline with Tween-80 94 % of control | dose: 200.0 mg/kg/injection, schedule: Q04DX002 (ip), vehicle: saline with Tween-80 92 % of control
